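GI50 = concentration required for 50% inhibition of growth. Definition used: TGI = concentration required for complete inhibition of growth.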
Columns and labels:
Assay in all cases: NCI anticancer screen, dose series, 384-well format
786-0 renal = system: 786-0 renal
A498 renal = system: A498 renal
A549 NSCLC = system: A549 NSCLC
ACHN renal = system: ACHN renal
BT-549 breast = system: BT-549 breast
CAKI-1 renal = system: CAKI-1 renal
CCRF-CEM leukemia = system: CCRF-CEM leukemia
COLO 205 colon = system: COLO 205 colon
DU-145 prostate = system: DU-145 prostate
EKVX NSCLC = system: EKVX NSCLC
HCC-2998 colon = system: HCC-2998 colon
HCT-116 colon = system: HCT-116 colon
HCT-15 colon = system: HCT-15 colon
HOP-62 NSCLC = system: HOP-62 NSCLC
HOP-92 NSCLC = system: HOP-92 NSCLC
HS 578T breast = system: HS 578T breast
HT29 colon = system: HT29 colon
IGROV1 ovarian = system: IGROV1 ovarian
K-562 leukemia = system: K-562 leukemia
KM12 colon = system: KM12 colon
LOX IMVI melanoma = system: LOX IMVI melanoma
M14 melanoma = system: M14 melanoma
MALME-3M melanoma = system: MALME-3M melanoma
MCF7 breast = system: MCF7 breast
MDA-MB-231 breast = system: MDA-MB-231 breast
MDA-MB-435 melanoma = system: MDA-MB-435 melanoma
MDA-MB-468 breast = system: MDA-MB-468 breast
MOLT-4 leukemia = system: MOLT-4 leukemia
NCI-H226 lung = system: NCI-H226 lung
NCI-H23 lung = system: NCI-H23 lung
NCI-H322M lung = system: NCI-H322M lung
NCI-H460 NSCLC = system: NCI-H460 NSCLC
NCI-H522 lung = system: NCI-H522 lung
NCI/ADR-RES ovarian = system: NCI/ADR-RES ovarian
OVCAR-3 ovarian = system: OVCAR-3 ovarian
OVCAR-4 ovarian = system: OVCAR-4 ovarian
OVCAR-5 ovarian = system: OVCAR-5 ovarian
OVCAR-8 ovarian = system: OVCAR-8 ovarian
PC-3 prostate = system: PC-3 prostate
RPMI-8226 leukemia = system: RPMI-8226 leukemia
RXF 393 renal = system: RXF 393 renal
SF-268 CNS = system: SF-268 CNS
SF-295 CNS = system: SF-295 CNS
SF-539 CNS = system: SF-539 CNS
SK-MEL-28 melanoma = system: SK-MEL-28 melanoma
SK-MEL-5 melanoma = system: SK-MEL-5 melanoma
SK-OV-3 ovarian = system: SK-OV-3 ovarian
SN12C renal = system: SN12C renal
SNB-19 CNS = system: SNB-19 CNS
SNB-75 CNS = system: SNB-75 CNS
SW-620 colon = system: SW-620 colon
T-47D breast = system: T-47D breast
TK-10 renal = system: TK-10 renal
U251 glioblastoma = system: U251 glioblastoma
UACC-257 melanoma = system: UACC-257 melanoma
UACC-62 melanoma = system: UACC-62 melanoma
UO-31 renal = system: UO-31 renal

Cn1c(=O)c(F)c(Nc2ccc(I)cc2F)c2c(=O)n(C[C@@H](O)CO)cnc21
GI50 ([…]-0 renal): 1.62 µM | TGI (786-0 renal): 17.9 µM | GI50 (A498 renal): 0.268 µM | TGI (A498 renal): 12.6 µM | GI50 (A549 NSCLC): < 0.01 µM | TGI (A549 NSCLC): 9.91 µM | GI50 (ACHN renal): 1.09 µM | TGI (ACHN renal): 26.9 µM | GI50 (BT-549 breast): 2.39 µM | TGI (BT-549 breast): 23.5 µM | GI50 (CAKI-1 renal): 0.0133 µM | TGI (CAKI-1 renal): 19.2 µM | GI50 (CCRF-CEM leukemia): 10.6 µM | TGI (CCRF-CEM leukemia): 22.8 µM | GI50 (COLO 205 colon): < 0.01 µM | TGI (COLO 205 colon): < 0.01 µM | GI50 (DU-145 prostate): 1.99 µM | TGI (DU-145 prostate): 36.7 µM | GI50 (EKVX NSCLC): 2.08 µM | TGI (EKVX NSCLC): 25.5 µM | GI50 (HCC-2998 colon): < 0.01 µM | TGI (HCC-2998 colon): 0.0128 µM | GI50 (HCT-116 colon): < 0.01 µM | TGI (HCT-116 colon): 0.164 µM | GI50 (HCT-15 colon): 0.466 µM | TGI (HCT-15 colon): 19.6 µM | GI50 (HOP-62 NSCLC): < 0.01 µM | TGI (HOP-62 NSCLC): 25.2 µM | GI50 (HOP-92 NSCLC): < 0.01 µM | TGI (HOP-92 NSCLC): 0.179 µM | GI50 (HS 578T breast): 0.184 µM | TGI (HS 578T breast): 11 µM | GI50 (HT29 colon): < 0.01 µM | TGI (HT29 colon): 11.6 µM | GI50 (IGROV1 ovarian): < 0.01 µM | TGI (IGROV1 ovarian): 1.11 µM | GI50 (K-562 leukemia): 0.011 µM | TGI (K-562 leukemia): 15.5 µM | GI50 (KM12 colon): < 0.01 µM | TGI (KM12 colon): 13.6 µM | GI50 (LOX IMVI melanoma): < 0.01 µM | TGI (LOX IMVI melanoma): 0.137 µM | GI50 (M14 melanoma): < 0.01 µM | TGI (M14 melanoma): < 0.01 µM | GI50 (MALME-3M melanoma): < 0.01 µM | TGI (MALME-3M melanoma): < 0.01 µM | GI50 (MCF7 breast): 12.4 µM | TGI (MCF7 breast): 29 µM | GI50 (MDA-MB-231 breast): < 0.01 µM | TGI (MDA-MB-231 breast): 1.11 µM | GI50 (MDA-MB-435 melanoma): < 0.01 µM | TGI (MDA-MB-435 melanoma): 19.9 µM | GI50 (MDA-MB-468 breast): 0.387 µM | TGI (MDA-MB-468 breast): 1.62 µM | GI50 (MOLT-4 leukemia): 4.01 µM | TGI (MOLT-4 leukemia): 16.3 µM | GI50 (NCI-H226 lung): < 0.01 µM | TGI (NCI-H226 lung): 5.39 µM | GI50 (NCI-H23 lung): < 0.01 µM | TGI (NCI-H23 lung): 0.0296 µM | GI50 (NCI-H322M lung): 0.0185 µM | TGI (NCI-H322M lung): 16.6 µM | GI50 (NCI-H460 NSCLC): < 0.01 µM | TGI (NCI-H460 NSCLC): 30.6 µM | GI50 (NCI-H522 lung): 0.929 µM | TGI (NCI-H522 lung): 22.7 µM | GI50 (NCI/ADR-RES ovarian): 12.7 µM | TGI (NCI/ADR-RES ovarian): 44.6 µM | GI50 (OVCAR-3 ovarian): 4.32 µM | TGI (OVCAR-3 ovarian): 19.2 µM | GI50 (OVCAR-4 ovarian): 15.6 µM | TGI (OVCAR-4 ovarian): 55.8 µM | GI50 (OVCAR-5 ovarian): < 0.01 µM | TGI (OVCAR-5 ovarian): 16.9 µM | GI50 (OVCAR-8 ovarian): 3.68 µM | TGI (OVCAR-8 ovarian): 18.6 µM | GI50 (PC-3 prostate): 18.5 µM | TGI (PC-3 prostate): 53.2 µM | GI50 (RPMI-8226 leukemia): 11.6 µM | TGI (RPMI-8226 leukemia): 24.8 µM | GI50 (RXF 393 renal): 0.191 µM | TGI (RXF 393 renal): 10.4 µM | GI50 (SF-268 CNS): < 0.01 µM | TGI (SF-268 CNS): 7.63 µM | GI50 (SF-295 CNS): 11.5 µM | TGI (SF-295 CNS): 25.4 µM | GI50 (SF-539 CNS): 0.215 µM | TGI (SF-539 CNS): 10.6 µM | GI50 (SK-MEL-28 melanoma): < 0.01 µM | TGI (SK-MEL-28 melanoma): < 0.01 µM | GI50 (SK-MEL-5 melanoma): < 0.01 µM | TGI (SK-MEL-5 melanoma): 10.7 µM | GI50 (SK-OV-3 ovarian): 3.34 µM | TGI (SK-OV-3 ovarian): 21.5 µM | GI50 (SN12C renal): < 0.01 µM | TGI (SN12C renal): 17.2 µM | GI50 (SNB-19 CNS): 0.783 µM | TGI (SNB-19 CNS): 34.5 µM | GI50 (SNB-75 CNS): 0.32 µM | TGI (SNB-75 CNS): 17.5 µM | GI50 (SW-620 colon): < 0.01 µM | TGI (SW-620 colon): 11.5 µM | GI50 (T-47D breast): 1.53 µM | TGI (T-47D breast): 22.6 µM | GI50 (TK-10 renal): 1.14 µM | TGI (TK-10 renal): 16.9 µM | GI50 (U251 glioblastoma): 0.0603 µM | TGI (U251 glioblastoma): 9.75 µM | GI50 (UACC-257 melanoma): < 0.01 µM | TGI (UACC-257 melanoma): < 0.01 µM | GI50 (UACC-62 melanoma): < 0.01 µM | TGI (UACC-62 melanoma): < 0.01 µM | GI50 (UO-31 renal): 0.181 µM | TGI (UO-31 renal): 1.77 µM
